Experimental data as given in patent US20240368125A1, “NOVEL PYRAZINYL-TRIAZOLE COMPOUNDS AS PESTICIDES” (Bayer Aktiengesellschaft, priority 2021, published 2024).

Assays:
Format in all cases: in vivo
[1] = system: adult mosquitoes Aedes aegypti strain MONHEIM; test: Aedes aegypti test (AEDSAE surface treatment & contact assay); settings: 24 hours after contact, read-out: efficacy (mortality); for mortality at 4 mg/m2: surface concentration 4 mg/m^2, 30 min exposure; for mortality at 20 mg/m2: surface concentration 20 mg/m^2, 30 min exposure
Protocol: Aedes aegypti Test (AEDSAE Surface Treatment & Contact Assay
(§1) Solvent: Aceton+2000 ppm rapeseed oil methyl ester (RME)
(§2) In order to produce a sufficient, active ingredient containing solution it is necessary to solve the test compound in the solvent-mix (acetone at 2 mg/ml/RME 2000 ppm). This solution is pipetted onto a glazed tile and after evaporation of the acetone, adult mosquitoes of the species Aedes aegypti strain MONHEIM are placed onto the dried surface. The exposure time is 30 minutes. Mortality in percent (%) is determined 24 hours after contact of the insects to the treated surface. 100% mortality means that all tested insects are dead, whereas 0% means that no insect died.

[2] = system: fall armyworm larvae (Spodoptera frugiperda); test: Spodoptera frugiperda spray test (SPODFR); settings: 168 h; for mortality at 100 g/ha: in Zea mays
Outline: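 Compound in acetone/dimethylformamide, diluted with water containing 1000 ppm alkylarylpolyglycol ether emulsifier. Maize leaf sections sprayed, dried, then infested with fall armyworm larvae. Mortality (%) scored after 7 days, 100% meaning all caterpillars killed.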

[3] = system: adult engorged female ticks (Rhipicephalus microplus); test: Rhipicephalus (Boophilus) microplus injection test; settings: 4 μg/tick, after 7 days
Protocol: Rhipicephalus (Boophilus) Microplus—Injection Test
(§3) Solvent: Dimethyl Sulfoxide
To produce a suitable preparation of active compound, 10 mg of active compound are dissolved in 0.5 mL solvent, and the concentrate is diluted with solvent to the desired concentration.
Five adult engorged female ticks (Rhipicephalus microplus) are injected with 1 μL compound solution into the abdomen. The ticks are transferred into replica plates and incubated in a climate chamber.
After 7 days egg deposition of fertile eggs is monitored. Eggs where fertility is not visible are stored in a climate chamber till hatching after about 42 days. An efficacy of 100% means all eggs are infertile; 0% means all eggs are fertile.

[4] = system: green peach aphid (Myzus persicae); test: Myzus persicae spray test (MYZUPE); settings: in Brassica rapa, foliar, 120 h
Outline: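 Chinese cabbage leaf disks infested with all instars of M. persicae sprayed with compound (acetone/DMF solvent, water with 1000 ppm alkylarylpolyglycol ether emulsifier) at the desired concentration. Percent mortality determined after 5 days; 100% = all aphids killed.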

[5] = system: Rhipicephalus (Boophilus) microplus larvae (strain Parkhurst, resistant against synthetic pyrethroids); test: Rhipicephalus (Boophilus) microplus in-vitro contact test, larval cattle tick; settings: Rhipicephalus microplus; 1 μg/cm^2 (=100 g/ha), after 48 hours; read-out: efficacy (larvae dead or moribund)
Outline: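 Compound in acetone coated on glass tube inner walls; 900 ppm solution gives 5 μg/cm^2. Pyrethroid-resistant Parkhurst larvae (20-50 per tube) held at 27° C., 85% relative humidity; efficacy assessed after 48 h by scoring negative geotactic behavior after tapping larvae to tube bottom.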

[6] = system: adult mosquitoes Culex quinquefasciatus strain P00; test: Culex quinquefasciatus test (CULXFA surface treatment & contact assay); settings: 24 hours after contact, read-out: efficacy (mortality); for mortality at 20 mg/m2: surface concentration 20 mg/m^2, 30 min exposure; for mortality at 4 mg/m2: surface concentration 4 mg/m^2, 30 min exposure
Protocol: Culex quinquefasciatus Test (CULXFA Surface Treatment & Contact Assay
as §1
as §2, with “Culex quinquefasciatus” for “Aedes aegypti”, “P00” for “MONHEIM”

[7] = system: adult unfed cat fleas (Ctenocephalides felis); test: Ctenocephalides felis oral test; settings: 48 h, 100 ppm in citrated cattle blood, after 2 days
Protocol: Ctenocephalides felis—Oral Test
as §3
To produce a suitable preparation of active compound, 10 mg of active compound are dissolved in 0.5 mL solvent, and the concentrate is diluted with citrated cattle blood to the desired concentration.
Approximately 20 adult unfed cat fleas (Ctenocephalides felis) are placed in a flea chamber whose top and bottom is covered with gauze. A chamber whose bottom is sealed with parafilm, is filled with the blood-compound solution and placed on top of the flea chamber, so that the fleas can suck the blood. The blood chamber is heated to 37° C. whereas the flea chamber is kept at room temperature.
After 2 days mortality in % is determined. 100% means all the fleas have been killed; 0% means none of the fleas have been killed.

[8] = system: adult brown dog ticks (Rhipicephalus sanguineus); test: Rhipicephalus sanguineus in-vitro contact test, adult brown dog ticks; settings: Rhipicephalus sanguineus; 1 μg/cm^2 (=100 g/ha), after 48 hours; read-out: efficacy (ticks dead or moribund)
Outline: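 Glass tubes are coated with compound dissolved in acetone, a 900 ppm solution yielding 5 μg/cm^2 on the inner surface. Adult ticks (5-10 per tube) are kept on the dry film at room temperature for 48 h, then those unable to escape 45-50° C heat are counted as dead or moribund.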

[9] = system: brown planthopper (Nilaparvata lugens); test: Nilaparvata lugens spray test; settings: Nilaparvata lugens, in Oryza sativa, 96 h
Outline: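 Compound dissolved in acetone/dimethylformamide and diluted in water with 1000 ppm alkylarylpolyglycol ether emulsifier. Rice plants sprayed at the test concentration, then infested with brown planthopper; % mortality read after 4 days (100% = all killed, 0% = none).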

Row | Compound | mortality at 4 mg/m2 [1] [%] | mortality at 20 mg/m2 [1] [%] | Emax at 4 g/ha ([2]; SPODFR, 4 g ai/ha, 7 dat, read-out: % Efficacy) [%] | Emax at 20 g/ha ([2]; SPODFR, 20 g ai/ha, 7 dat, read-out: % Efficacy) [%] | Emax at 100 g/ha ([2]; SPODFR, 100 g ai/ha, 7 dat, read-out: % Efficacy) [%] | mortality at 100 g/ha [2] [%] | efficacy (infertile eggs) [3] [%] | mortality at 100 g/ha [4] [%] | pest or weed control at 1 µg/cm2 [5] [%] | mortality at 20 mg/m2 [6] [%] | mortality at 100 ppm [7] [%] | pest or weed control at 1 µg/cm2, 100 g/ha [8] [%] | mortality at 500 g/ha [9] [%] | mortality at 4 mg/m2 [6] [%]
1 | C[C@H](NC(=O)c1cc(OC(F)(F)F)cc(C2CC2)c1)c1ncnn1-c1cnc(C(=O)N(C)C)cn1 [Example I-002] | 80 to 100 | 80 to 100 | 100 | 100 | 100 | 100 | 100 | 90 | 100 | 80 to 100 | 100 | 100 | 90 | 
2 | C[C@H](NC(=O)c1cc(C(F)(F)F)cc(C(F)(F)F)c1)c1ncnn1-c1cnc(C(=O)N(C)C2CC2)cn1 [Example I-007] | 80 to 100 | 80 to 100 |  |  |  | 100 | 100 | 90 | 100 | 80 to 100 | 100 | 100 | 100 | 80 to 100
3 | C[C@H](NC(=O)c1cc(C(F)(F)F)cc(C(F)(F)F)c1)c1ncnn1-c1cnc(C(=O)N(C)CC2CC2)cn1 [Example I-008] | 80 to 100 | 80 to 100 |  |  |  | 100 | 100 | 90 | 100 | 80 to 100 | 100 | 100 | 100 | 80 to 100
4 | CNC(=O)c1cnc(-n2ncnc2[C@H](C)NC(=O)c2cc(C(F)(F)F)cc(C(F)(F)F)c2)cn1 [Example I-009] | 80 to 100 | 80 to 100 |  |  |  | 100 | 100 | 90 | 100 | 80 to 100 | 100 | 100 | 100 | 80 to 100
5 | CNC(=O)c1cnc(-n2ncnc2[C@H](C)NC(=O)c2cc(OC(F)(F)F)cc(C3CC3)c2)cn1 [Example I-021] | 80 to 100 | 80 to 100 |  |  |  | 100 |  | 90 | 100 | 80 to 100 |  | 100 | 100 | 80 to 100
